Experimental data published in patent US20200297725A1, “ALLOSTERIC BCR-ABL PROTEOLYSIS TARGETING CHIMERIC COMPOUNDS” (YALE UNIVERSITY, priority 2019, published 2020).
“Also recorded” adds a separate entry of the source. Like-named read-outs stand apart in the source and are kept apart here.

Key:
[1] = test system: healthy donor CD34+ cells; assay: Effect on healthy donor CD34+ cells; assay type: cell-based, human; conditions: proliferation and apoptosis
K562 cells [2] = assay: K562 cell proliferation assay; assay type: cell-based; conditions: Homo sapiens
Description: (§1) Cell lines and patient samples were exposed to dose ranges of single or combination agents and incubated for 3 days at 37° C., 5% CO2 and subjected to a CellTiter 96 AQueous One solution cell proliferation assay (Promega). IC50 values calculated and analyzed using Prism 6 software (GraphPad).

[3] = test system: BCR-ABL1 transformed Ba/F3 cells; assay: Cell proliferation of BCR-ABL1 transformed Ba/F3 cells (MTS); assay type: cell-based, murine
Description: as §1
Plates were incubated at 37° C. for 72 h and analyzed by standard MTS-based colorimetric assay. Non-linear regression curve-fit analysis and IC50 calculations were performed using Graphpad Prism software.

[4] = test system: Ba/F3 BCR-ABL1 T315I cells; assay: Cell proliferation of Ba/F3 cells expressing BCR-ABL1 T315I; assay type: cell-based, murine; conditions: versus wild-type BCR-ABL1
Description: as §1

[5] = test system: Ba/F3 BCR-ABL1 G250E cells; assay: Cell proliferation of Ba/F3 cells expressing BCR-ABL1 G250E; assay type: cell-based, murine; conditions: versus wild-type BCR-ABL1
Description: as §1

[6] = test system: primary CML CD34+ patient cells; assay: Proliferation of primary CML patient CD34+ cells; assay type: cell-based, human; conditions: CD34+ cells from newly diagnosed CML patients
Description: as §1

[7] = test system: primary CML CD34+ patient cells; assay: Apoptosis (Annexin V) in primary CML patient cells; assay type: cell-based, human; conditions: patient 1; no appreciable difference between PROTAC and diastereomer control
Description: Mononuclear cells (MNCs) were isolated from either peripheral blood, bone marrow or leukapheresis samples by Ficoll gradient. MNCs were then treated with ammonium-chloride-potassium (ACK) lysis buffer to remove any residual red blood cells. […] For cell proliferation assays, samples were thawed and cultured in R10. For immunoblot assays, samples were thawed and cultured in IMDM with 40 μg/mL low-density lipoprotein (LDL, Stem Cell), 20% FBS, and 100 μM beta-mercaptaethanol (Sigma).
Sorted samples were recovered overnight in culture in IMDM with 40 μg/mL low-density lipoprotein (LDL, Stem Cell), 20% FBS, and 100 μM beta-mercaptaethanol (Sigma).

BCR-ABL1 [8] = biological target: T1, BCR-ABL1 (Homo sapiens, UniProt P00519); assay: Immunoblot of co-treatment with ponatinib in Ba/F3 BCR-ABL1 wild-type cells; assay type: cell-based, murine; parameters: BCR N-terminal portion (fusion partner, BCR P11274); expressed in transfected cells; the other entry of the earlier key: BCR (P11274, Breakpoint cluster region protein); conditions: overnight co-treatment with ponatinib
Text: (§2) Samples were lysed in 1× Cell Signaling lysis buffer (#9803S) supplemented with PMSF and complete mini tablets (Sigma #11836153001). Lysates were quantified and separated on 4-15% Tris-glycine polyacrylamide gels. Gels were transferred and then blocked in TBS-Tween buffer with 5% BSA. The following primary antibodies were used: tABL, BD #554148 anti-mouse 1:400; c-ABL1, SantaCruz #24-11 anti-mouse 1:1000; B-tubulin, Millipore #05-66-MI anti-mouse 1:5000; pSTAT5, # CS9351S anti-rabbit 1:1000 pSTAT5, # CS4322 anti-rabbit 1:1000; pBCR-Abl, # CS2865 anti-rabbit 1:1000; pCRKL, # CS491 anti-rabbit 1:1000; pAKT, # CS4060 anti-rabbit 1:1000; pERK, # CS4695 anti-rabbit 1:1000; pSHP-2, Abcam #62322 anti-rabbit 1:1000; pGAB1, # CS3233 anti-rabbit 1:1000; pGAB2, # CS3882 anti-rabbit 1:1000; pSHC, # CS2434 anti-rabbit 1:1000; VHL, # CS68547 anti-rabbit 1:1000; pCRKL, # CS3181S anti-rabbit 1:1000. Following incubation with appropriate HRP-conjugated secondary antibodies, membranes were imaged on a BioRad ChemiDoc using BioRad Clarity Western ECL substrate and Thermo Super Signal West Femto Maximum Sensitivity substrate.
Target sequence in this assay (P00519 28-1130 limits assumed): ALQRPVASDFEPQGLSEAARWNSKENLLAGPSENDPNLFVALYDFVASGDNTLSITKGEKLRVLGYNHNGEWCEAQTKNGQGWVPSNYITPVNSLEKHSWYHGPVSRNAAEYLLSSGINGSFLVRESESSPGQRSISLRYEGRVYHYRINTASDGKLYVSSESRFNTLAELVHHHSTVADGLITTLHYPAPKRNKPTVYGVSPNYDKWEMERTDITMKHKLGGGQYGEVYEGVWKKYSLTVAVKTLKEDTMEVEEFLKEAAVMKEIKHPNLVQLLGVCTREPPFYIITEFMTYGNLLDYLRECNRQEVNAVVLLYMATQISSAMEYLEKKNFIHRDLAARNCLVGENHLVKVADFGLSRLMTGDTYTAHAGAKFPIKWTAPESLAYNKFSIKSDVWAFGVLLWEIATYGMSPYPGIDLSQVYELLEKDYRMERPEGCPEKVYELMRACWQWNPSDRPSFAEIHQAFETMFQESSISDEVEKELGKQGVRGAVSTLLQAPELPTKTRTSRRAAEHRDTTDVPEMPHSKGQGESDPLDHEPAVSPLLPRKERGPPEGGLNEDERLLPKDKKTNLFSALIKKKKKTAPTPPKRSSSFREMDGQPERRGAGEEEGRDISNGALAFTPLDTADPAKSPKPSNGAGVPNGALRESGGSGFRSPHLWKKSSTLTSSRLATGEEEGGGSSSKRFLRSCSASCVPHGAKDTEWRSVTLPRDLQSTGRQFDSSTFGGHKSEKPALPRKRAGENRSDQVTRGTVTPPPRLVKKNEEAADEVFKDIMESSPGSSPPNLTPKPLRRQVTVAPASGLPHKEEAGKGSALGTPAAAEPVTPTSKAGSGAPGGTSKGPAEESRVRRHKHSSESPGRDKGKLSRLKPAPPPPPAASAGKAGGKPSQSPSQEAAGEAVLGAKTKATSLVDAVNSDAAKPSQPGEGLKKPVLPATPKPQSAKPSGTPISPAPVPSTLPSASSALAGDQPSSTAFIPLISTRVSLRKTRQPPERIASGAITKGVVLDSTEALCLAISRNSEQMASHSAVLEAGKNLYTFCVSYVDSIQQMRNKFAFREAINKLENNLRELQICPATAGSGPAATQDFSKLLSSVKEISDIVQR

BCR-ABL1 [9] = biological target: T1, BCR-ABL1; assay: BCR-ABL1 / c-ABL1 degradation in K562 cells by immunoblot; assay type: cell-based; parameters: K562 cell lines were purchased from ATCC; BCR N-terminal portion (fusion partner, human BCR P11274); host or cells: K562; the other entry of the earlier key: BCR (P11274, Breakpoint cluster region protein); conditions: for DC50 / BCR-Abl and c-Abl levels on co-treatment with GMB-805 (Compound 19) / BCR-ABL1 and c-ABL1 levels on co-treatment with Compound 10: K562 cells; for BCR-Abl and c-Abl levels on co-treatment with GMB-805 (Compound 19): 1 μM GMB-805, 8 hours; for BCR-ABL1 and c-ABL1 levels on co-treatment with Compound 10: 8 hour treatment, compared to Compound 10 alone
Description: The cells were collected at 300 g for 3 min. […] The total protein concentrations were determined by Pierce BCA Protein Assay and 30-50 μg of protein was loaded onto 10% Tris-Glycine gels. After standard gel electrophoresis, the separated proteins were transferred to nitrocellulose by wet transfer. The immunoblots were then processed by standard procedures and incubated with the respective antibodies. Band intensities were quantified by Bio-Rad's Image Lab software.
Gels were transferred and then blocked in TBS-Tween buffer with 5% BSA. […] Following incubation with appropriate HRP-conjugated secondary antibodies, membranes were imaged on a BioRad ChemiDoc using BioRad Clarity Western ECL substrate and Thermo Super Signal West Femto Maximum Sensitivity substrate.
(§3) Following centrifugation at 13,000×g for 15 minutes at 4° C. to pellet insoluble materials, the protein concentrations of the supernatants were quantitated by BCA assay (Thermo Fisher Scientific). Protein samples were resolved by SDS-PAGE, transferred to nitrocellulose, blocked with 5% non-fat milk and probed with the marked antibodies. Immunoblots were developed using enhanced chemiluminescence and visualized using a Bio-Rad Chemi-Doc MP Imaging System with Image Lab v.5.2.1 software (Bio-Rad Laboratories).
Target sequence in this assay (P00519 with tags, fused parts or gaps): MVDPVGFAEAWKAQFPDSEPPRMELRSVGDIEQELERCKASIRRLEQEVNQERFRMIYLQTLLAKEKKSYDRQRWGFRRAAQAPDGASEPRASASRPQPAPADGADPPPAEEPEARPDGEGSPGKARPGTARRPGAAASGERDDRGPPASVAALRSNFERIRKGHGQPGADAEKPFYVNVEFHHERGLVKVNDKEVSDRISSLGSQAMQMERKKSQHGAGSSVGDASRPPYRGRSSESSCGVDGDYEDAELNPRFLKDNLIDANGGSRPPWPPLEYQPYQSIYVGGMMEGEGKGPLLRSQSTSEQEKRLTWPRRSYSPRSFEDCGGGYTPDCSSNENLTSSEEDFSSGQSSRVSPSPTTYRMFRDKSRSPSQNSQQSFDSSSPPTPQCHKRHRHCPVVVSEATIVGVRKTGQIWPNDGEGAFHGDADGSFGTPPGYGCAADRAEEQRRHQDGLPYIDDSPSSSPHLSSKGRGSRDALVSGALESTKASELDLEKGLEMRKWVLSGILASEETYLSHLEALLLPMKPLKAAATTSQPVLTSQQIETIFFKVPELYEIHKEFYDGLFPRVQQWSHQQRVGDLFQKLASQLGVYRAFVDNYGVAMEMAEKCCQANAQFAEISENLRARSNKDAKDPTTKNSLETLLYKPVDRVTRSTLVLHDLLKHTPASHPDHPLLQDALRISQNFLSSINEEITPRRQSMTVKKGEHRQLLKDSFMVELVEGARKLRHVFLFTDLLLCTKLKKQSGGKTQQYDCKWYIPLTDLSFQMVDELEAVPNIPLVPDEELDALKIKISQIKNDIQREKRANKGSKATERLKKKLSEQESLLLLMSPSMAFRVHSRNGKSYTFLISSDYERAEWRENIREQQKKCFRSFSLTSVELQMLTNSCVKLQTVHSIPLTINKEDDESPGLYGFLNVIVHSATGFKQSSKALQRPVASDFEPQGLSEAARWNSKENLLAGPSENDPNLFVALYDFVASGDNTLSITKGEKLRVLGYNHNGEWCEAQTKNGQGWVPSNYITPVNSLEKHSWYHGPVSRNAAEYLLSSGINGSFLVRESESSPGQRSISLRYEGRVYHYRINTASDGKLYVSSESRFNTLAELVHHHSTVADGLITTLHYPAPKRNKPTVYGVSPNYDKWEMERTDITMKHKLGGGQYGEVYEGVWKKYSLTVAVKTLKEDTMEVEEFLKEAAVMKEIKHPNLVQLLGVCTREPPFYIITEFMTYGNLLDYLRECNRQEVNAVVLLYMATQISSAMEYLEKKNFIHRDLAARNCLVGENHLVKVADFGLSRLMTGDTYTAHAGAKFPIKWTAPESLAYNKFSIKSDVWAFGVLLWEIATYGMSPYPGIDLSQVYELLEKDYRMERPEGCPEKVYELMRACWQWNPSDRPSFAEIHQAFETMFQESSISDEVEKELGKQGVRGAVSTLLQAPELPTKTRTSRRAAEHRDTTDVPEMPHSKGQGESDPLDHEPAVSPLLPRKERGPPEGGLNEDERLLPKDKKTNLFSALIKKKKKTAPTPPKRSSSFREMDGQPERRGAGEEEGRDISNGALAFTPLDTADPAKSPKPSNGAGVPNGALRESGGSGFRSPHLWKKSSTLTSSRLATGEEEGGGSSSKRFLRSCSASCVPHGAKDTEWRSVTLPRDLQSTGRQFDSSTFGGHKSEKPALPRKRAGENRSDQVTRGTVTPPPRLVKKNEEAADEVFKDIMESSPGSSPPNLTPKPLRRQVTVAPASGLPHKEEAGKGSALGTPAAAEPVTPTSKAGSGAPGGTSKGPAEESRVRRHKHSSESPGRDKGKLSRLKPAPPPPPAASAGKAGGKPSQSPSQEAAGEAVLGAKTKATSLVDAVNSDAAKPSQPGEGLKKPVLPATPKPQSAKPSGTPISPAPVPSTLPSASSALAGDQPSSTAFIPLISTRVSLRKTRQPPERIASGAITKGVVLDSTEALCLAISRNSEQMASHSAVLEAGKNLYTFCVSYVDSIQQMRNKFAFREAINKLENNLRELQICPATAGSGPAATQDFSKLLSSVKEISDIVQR

BCR-ABL1 [10] = biological target: T1, BCR-ABL1; assay: BCR-ABL1 signaling and scaffolding in K562 cells (RPPA, immunoblot); assay type: cell-based; parameters: K562 cell lines were purchased from ATCC; BCR N-terminal portion (fusion partner, human BCR P11274); host or cells: K562; the other entry of the earlier key: BCR (P11274, Breakpoint cluster region protein)
Text: as §2
Target sequence in this assay (P00519 with tags, fused parts or gaps): as above
RPPA was performed in the MDACC CCSG core as described at http://www.mdanderson.org/education-and-research/resources-for-professionals/scientific-resources/core-facilities-and-services/functional-proteomics-rppa-core/index.html.
as §3, with “K562 cells were treated with the indicated concentrations of compound for 24 hours, washed with PBS and then harvested in lysis buffer (50 mM Tris (pH 7.4), 150 mM NaCl, 1 mM EDTA, 0.5% NP-40, phosphatase and protease inhibitors). Following” for “Following”

BCR-ABL1 [11] = biological target: T1, BCR-ABL1; assay: BCR-ABL1 degradation in primary patient LSCs (CD34+CD38-) by immunoblot; assay type: cell-based; parameters: induce degradation of both BCR-ABL1 and ABL1 in primary patient LSCs; BCR N-terminal portion (fusion partner, human BCR P11274); endogenous in cells; host or cells: primary CML patient CD34+/CD38- cells (patient 1); the other entry of the earlier key: BCR (P11274, Breakpoint cluster region protein); conditions: CD34+/CD38- cells, patient 1, overnight
Description: MNCs isolated from specimens via ficoll, then selected for CD34+ by MACs column. Frozen viables were thawed and cultured in IMDM+40 ug/mL LDL+20% FBS+100 uM BME overnight. Sorted using FACS Aria III, stained with CD34 (BD348801) and CD38 (BD555461).
Cells were lysed in Cell Signaling lysis buffer supplemented with PMSF and Complete Mini protease inhibitor tablets. Protein concentration assessed via BCA assay, ran on 4-15% tris-glycine polyacrylamide gel at 180V for 1 h, transferred overnight at 25V, blocked with 5% BSA in TBST for 1 h and incubated at 4 degree in following primary antibodies.
Target sequence in this assay (P00519 28-1130 limits assumed): as the sequence (P00519 28-1130 limits assumed) above

[12] = Pharmacokinetics in mouse; assay type: in vivo; conditions: 10 mg/kg IP
Description: The pharmacokinetic properties were determined at Pharmaron, China. The exemplary compound was formulated (in 5% EtOH & 5% Solutol HS15 in D5W(ESD-2)) and administered by intraperitoneal (I.P.) injection at a dosing level of 10 mg/kg. Plasma samples were collected at 0.25 hours, 0.5 hours, 1 hour, 2 hours, 4 hours, 8 hours, and 24 hours following dosing.
Acetonitrile was added to precipitate protein and the samples were vortexed for 30 second, centrifuged (4000 rpm, 15 minutes), diluted with water and the compound concentration determined by LC/MS/MS according to a standard curve.

K562 cells [13] = assay: K562 xenograft model in athymic mice; assay type: in vivo; conditions: 200 mg/kg IP once every 24 hours, day 4-6
Description: K562 cells were implanted subcutaneously into the flank of athymic mice and tumors were allowed to develop to approx. 200 mm^3. Animals were then randomised into treatment or vehicle groups on day 1. On day 4-6, animals were either treated with exemplary compound GMB-805 (Compound 19; 200 mg/kg) or vehicle control by IP injection once every 24 hours.
All in vivo experiments were conducted in accordance with institutional guidelines and were approved by Yale Institutional Animal Care & Use Committee. Mice were housed in pathogen-free animal facilities and with access to food and water ad libitum. K562 cells in Matrigel (Corning Life Sciences) were injected subcutaneously into the flank of athymic mice (Charles River) and allowed to proliferate until tumors reached −200 mm^3 at which point mice were randomized into treatment groups and treated I.P. with vehicle or exemplary compound once a day at 200 mg/kg for 3 days. Tumors were measured via caliper and volumes calculated following equation:
where V=volume, L=Length and W=Width

Cc1ccc(NC(=O)c2ccc(CN3CCN(C)CC3)cc2)cc1Nc1nccc(-c2cccnc2)n1 [imatinib]
effect on healthy donor CD34+ cells [1]: had no effect on healthy donor CD34+ cells

Cc1ncsc1-c1ccc(CNC(=O)[C@@H]2C[C@@H](O)CN2C(=O)[C@@H](NC(=O)COCCOc2ccc(-c3cc(Nc4ccc(OC(F)(F)F)cc4)ncn3)cc2)C(C)(C)C)cc1 [Compound 10]
IC50 (K562 cells [2]; FIG. 5B/D: K562 and Ba/F3 BCR-ABL1 cells, read-out: cell proliferation IC50): ~1000 nM | IC50 ([3]; Mus musculus, BaF3, single agent, 72 h (FIG. 6A), read-out: IC50, dose response titration): 1110 nM | reduction of the IC50 of imatinib by co-treatment ([3]; co-treatment of imatinib with 2.5 μM Compound 10): ~3 fold | effect of T315I mutation on potency [4]: had little effect on the potency of Compound 10 | anti-proliferative activity against G250E mutant [5]: enhanced anti-proliferative activity | potency at inhibiting proliferation relative to Compound 14 [6]: greater than 2 fold | apoptosis in sorted progenitor (CD34+CD38+) and stem (CD34+CD38-) cells [7]: induced apoptosis in the progenitor cells and to a lesser extent in the stem cells | effect of co-treatment with ponatinib (immunoblot) (BCR-ABL1 [8]): enhanced the ability of Compound 10 to induce degradation | degradation of BCR-ABL1 and c-ABL1 (BCR-ABL1 [9]; K562 (FIG. 5A) and Ba/F3 (FIG. 5C) cells, dose- and time-dependent): induce the degradation of BCR-ABL1 and c-ABL1 | Dmax (BCR-ABL1 [9]; K562, read-out: Dmax (%) [cell line]): 95% | DC50 (BCR-ABL1 [9]; read-out: DC50): 340 nM | total ABL1 protein by RPPA (BCR-ABL1 [10]; K562, 5 μM, 8 h): showed a decrease in total ABL1 protein | phosphorylation of GAB2 and SHC (BCR-ABL1 [10]; K562, full serum (10% FBS)): able to reduce phosphorylation of GAB2 and SHC | kinase activity of BCR-ABL1 (pBCR-ABL1 Tyr412, pSTAT-5) (BCR-ABL1 [10]; K562, immunoblot, 8 h and 24 h): able to inhibit the kinase activity of BCR-ABL1 | phosphorylation of GAB2, SHC and STAT5 (BCR-ABL1 [10]; K562, serum-free): able to inhibit phosphorylation of GAB2 and SHC, as well as STAT5 | degradation of BCR-ABL1 and ABL1 (BCR-ABL1 [11]): able to induce degradation of both BCR-ABL1 and ABL1

NS(=O)(=O)OC[C@@H]1C[C@@H](n2ccc3c(N[C@H]4CCc5ccccc54)ncnc32)C[C@@H]1O [MLN-4924, reference compound]
BCR-Abl and c-Abl levels on co-treatment with GMB-805 (Compound 19) (BCR-ABL1 [9]): able to rescue protein levels | BCR-ABL1 and c-ABL1 levels on co-treatment with Compound 10 (BCR-ABL1 [9]): inhibited the degradation of BCR-ABL1 and ABL1

Cc1ncsc1-c1ccc(CNC(=O)[C@@H]2C[C@@H](O)CN2C(=O)[C@@H](NC(=O)COCCNc2ncc(C(=O)Nc3ccc(OC(F)(F)Cl)cc3)cc2-c2ccn[nH]2)C(C)(C)C)cc1 [Compound 19]
IC50 (K562 cells [2]; K562 (FIG. 16B), read-out: antiproliferative activity IC50): 169 nM | Cmax [12]: well over above both the DC50 and IC50 | toxicity or weight loss (K562 cells [13]): no toxicity or weight loss was observed; also recorded: induced no weight loss | tumor volume (K562 cells [13]): no significant increase in tumor volume | DC50 (BCR-ABL1 [9]; extended dose response, 24 hours (FIG. 16A), read-out: DC50 (concentration at which half maximal degradation is observed)): 30 nM

CC[C@H](C)[C@H](NC(=O)[C@H]([C@@H](C)CC)N(C)C(C)=O)C(=O)N[C@H](C(=O)N[C@@H](CC(C)C)C(=O)[C@@]1(C)CO1)[C@@H](C)O [epoxomicin, reference compound]
BCR-Abl and c-Abl levels on co-treatment with GMB-805 (Compound 19) (BCR-ABL1 [9]): restored protein concentration back to untreated levels | BCR-ABL1 and c-ABL1 levels on co-treatment with Compound 10 (BCR-ABL1 [9]): restored the levels of BCR-ABL1 and c-ABL1
